In patent US10919935B2, “Antimicrobial peptide derived from myxinidin peptide and uses thereof” (INDUSTRY-ACADEMIC COOPERATION FOUNDATION, CHOSUN UNIVERSITY, priority 2015, dated 2021):
Residues, ends and D or L forms follow the SMILES beside them.

What was measured:
Format in all cases: cell-based
[1] = system: membrane of Staphylococcus aureus; experiment: Confocal microscopy analysis with PI (Propidium iodide); details: reaction for 10 minutes
Protocol: (§1) Specifically, myxinidin 2 or myxinidin 3, which have been synthesized in the above Example 1, was treated with PI (Propidium Iodide) solution and Escherichia coli or Staphylococcus aureus followed by reaction for 10 minutes. After the reaction, only pure Escherichia coli were collected by centrifuge (4,000 rpm) followed by removal of supernatant. Then, by adding 50 μl of physiological saline (PBS), cell aggregate was removed. By using LSM510 confocal microscope, the working mechanism of the peptide on Escherichia coli and Staphylococcus aureus membrane was determined.

[2] = system: membrane of Escherichia coli; experiment: as above; details: reaction for 10 minutes
Protocol: as §1

[3] = system: Pseudomonas aeruginosa 4076; experiment: Anti-microbial disk diffusion susceptibility test with gelatin; details: 0.1% gelatin
Source text: (§2) FIGS. 4A to 4C show the results of determining the antimicrobial activity when the peptides of the present invention are admixed with gelatin used as a wound moisturizing agent. FIG. 4A: Determination of survival ratio of skin keratinocyte cells in accordance with a change in gelatin concentration; FIG. 4B: Measurement of minimum inhibitory concentration (MIC, μM) of the peptides for Staphylococcus aureus (S. aureus 3018), Acinetobacter baumannii (A. baumannii 719705), and Pseudomonas aeruginosa (P. aeruginosa 4076), in which the result is shown for different gelatin concentrations; FIG. 4C: Result of the anti-microbial disk diffusion susceptibility test carried out for Staphylococcus aureus (S. aureus 3018), Acinetobacter baumannii (A. baumannii 719705), and Pseudomonas aeruginosa (P. aeruginosa 4076), in which the result is shown for different peptide concentrations and also for the presence or absence of gelatin co-blending.
(§3) To specifically determine the antimicrobial activity at the time of mixing the synthetic peptide of the present invention with gelatin, myxinidin 2 and myxinidin 3 synthetic peptides were admixed with 0.1% gelatin. Furthermore, to determine the antimicrobial activity, a minimum inhibitory concentration measurement and an anti-microbial disk diffusion susceptibility test as an agar diffusion method were carried out for Acinetobacter baumannii, Pseudomonas aeruginosa, and Staphylococcus aureus.
(§4) Specifically, cultured Acinetobacter baumannii, Pseudomonas aeruginosa, and Staphylococcus aureus were diluted to a concentration of 2×10^5 cells/ml, admixed with a solution in which 0.1% gelatin is mixed with 1% agarose, and cultured. To see the antimicrobial activity, the peptide was applied on a 6 mm round disk, in which the peptide was applied at various different concentrations, and the diffusion level was measured.

[4] = system: Acinetobacter baumannii 719705; experiment: as above; details: 0.1% gelatin
Source text: as §2, §3, §4

[5] = system: Staphylococcus aureus 3018; experiment: as above; details: 0.1% gelatin
Source text: as §2, §3, §4

[6] = system: human skin keratinocyte cells infected with bacteria having tolerance to antibiotics; experiment: Migration of infected skin keratinocyte cells (scrape wound); details: peptide at 2 times MIC
Source text: To determine the wound healing effect of the peptide of the present invention by activating migration of skin keratinocyte cells infected with Acinetobacter baumannii, Pseudomonas aeruginosa, or Staphylococcus aureus, which are the bacterial strain having tolerance to antibiotics, the adhered cells were damaged to have an infection followed by a treatment with myxinidin 2 or myxinidin 3. The resulting cells were then observed under a microscope.
Specifically, human skin keratinocyte cells were cultured at 1×10^6 cells/ml, and then scraped off using a tip. Then, the cells were infected with Staphylococcus aureus, Acinetobacter baumannii, or Pseudomonas aeruginosa, which are the bacterial strain having tolerance to antibiotics, followed by a treatment with the peptide at a concentration that is 2 times higher than the minimum inhibitory concentration. Cell migration was then observed under a microscope.

[7] = infection with Acinetobacter baumannii
[8] = infection with Pseudomonas aeruginosa
[9] = infection with Staphylococcus aureus

SMILES	Activity on membrane (PI, confocal microscopy) [1]	Activity on membrane (PI, confocal microscopy) [2]	Antimicrobial activity with gelatin (disk diffusion) [3]	Antimicrobial activity with gelatin (disk diffusion) [4]	Antimicrobial activity with gelatin (disk diffusion) [5]	Cell migration / regeneration of scraped keratinocytes [6, 7]	Cell migration / regeneration of scraped keratinocytes [6, 8]	Cell migration / regeneration of scraped keratinocytes [6, 9]
CC[C@H](C)[C@H](NC(=O)[C@H](Cc1c[nH]c2ccccc12)NC(=O)[C@H](CCCCN)NC(=O)[C@@H](NC(=O)[C@@H](N)CCCCN)[C@@H](C)CC)C(=O)N[C@@H](CC(C)C)C(=O)N[C@@H](CCCCN)C(=O)N[C@@H](Cc1ccc(O)cc1)C(=O)N[C@@H](Cc1c[nH]c2ccccc12)C(=O)N[C@@H](CCCCN)C(=O)N[C@@H](Cc1c[nH]c2ccccc12)C(=O)N[C@@H](CO)C(N)=O [Myxinidin 2, KIKWILKYWKWS-NH2] (H-KIKWILKYWKWS-NH2; N-terminus assumed)	work on the membrane of Escherichia coli and Staphylococcus aureus to show PI	work on the membrane of Escherichia coli and Staphylococcus aureus to show PI	exhibited the antimicrobial activity	the antimicrobial activity was maintained	a similar antimicrobial activity was maintained	proliferation with no cell death	fast regeneration rate	Proliferation with no cell death
CC[C@H](C)[C@H](NC(=O)[C@H](Cc1c[nH]c2ccccc12)NC(=O)[C@H](CCCNC(=N)N)NC(=O)[C@@H](NC(=O)[C@@H](N)CCCNC(=N)N)[C@@H](C)CC)C(=O)N[C@@H](CC(C)C)C(=O)N[C@@H](CCCNC(=N)N)C(=O)N[C@@H](Cc1ccc(O)cc1)C(=O)N[C@@H](Cc1c[nH]c2ccccc12)C(=O)N[C@@H](CCCNC(=N)N)C(=O)N[C@@H](Cc1c[nH]c2ccccc12)C(=O)N[C@@H](CO)C(N)=O [Myxinidin 3, RIRWILRYWRWS-NH2] (H-RIRWILRYWRWS-NH2; N-terminus assumed)	work on the membrane of Escherichia coli and Staphylococcus aureus to show PI	work on the membrane of Escherichia coli and Staphylococcus aureus to show PI	exhibited the antimicrobial activity	exhibited a slightly higher antimicrobial activity when the treatment is made only with the peptide	a similar antimicrobial activity was maintained	fast regeneration rate	proliferation with no cell death	more rapid regeneration
